According to PubChem BioAssay AID330 (DTP/NCI, 2004):
Where “and” joins values, the source holds several entries; their conditions need not be identical. Identical values can stand only once. Inconclusive results and toxic doses are left out. How the source made its calls: active means survival T/C of 150% or more; inactive means T/C below 125% in these data.

Tested on: P388 leukemia ip, CD2F1 mice, survival T/C
Test: NCI In Vivo Anticancer Drug Screen. Data for tumor model P388 Leukemia (intraperitoneal) in CD2F1 (CDF1) mice
Settings: endpoint: median survival time, higher = longer survival
Method in brief: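 Mice carrying the transplanted tumor received test compound or vehicle. Survival was recorded in each group, and the value is the treated-group measurement divided by that of the vehicle-treated control group.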

[1] = dose: 50.0 mg/kg/injection, schedule: Q01DX009 (ip), vehicle: Klucel (hydroxypropylcellulose) (HPC)
[2] = dose: 100.0 mg/kg/injection, schedule: Q01DX009 (ip), vehicle: Klucel (hydroxypropylcellulose) (HPC)
[3] = dose: 200.0 mg/kg/injection, schedule: Q01DX009 (ip), vehicle: Klucel (hydroxypropylcellulose) (HPC)
[4] = dose: 100.0 mg/kg/injection, schedule: Q04DX003 (ip), vehicle: saline with Tween-80
[5] = dose: 200.0 mg/kg/injection, schedule: Q04DX003 (ip), vehicle: saline with Tween-80
[6] = dose: 400.0 mg/kg/injection, schedule: Q04DX003 (ip), vehicle: saline with Tween-80
[7] = dose: 60.0 mg/kg/injection, schedule: Q01DX005 (ip), vehicle: saline with Tween-80
[8] = dose: 120.0 mg/kg/injection, schedule: Q01DX005 (ip), vehicle: saline with Tween-80
[9] = dose: 25.0 mg/kg/injection, schedule: Q01DX009 (ip), vehicle: saline with Tween-80
[10] = dose: 50.0 mg/kg/injection, schedule: Q01DX009 (ip), vehicle: saline with Tween-80
[11] = dose: 100.0 mg/kg/injection, schedule: Q01DX009 (ip), vehicle: saline with Tween-80
[12] = dose: 200.0 mg/kg/injection, schedule: Q01DX009 (ip), vehicle: saline with Tween-80
[13] = dose: 25.0 mg/kg/injection, schedule: Q01DX005 (ip), vehicle: Klucel (hydroxypropylcellulose) (HPC)
[14] = dose: 50.0 mg/kg/injection, schedule: Q01DX005 (ip), vehicle: Klucel (hydroxypropylcellulose) (HPC)
[15] = dose: 100.0 mg/kg/injection, schedule: Q01DX005 (ip), vehicle: Klucel (hydroxypropylcellulose) (HPC)
[16] = dose: 240.0 mg/kg/injection, schedule: Q01DX005 (ip), vehicle: saline with Tween-80
[17] = dose: 50.0 mg/kg/injection, schedule: Q04DX003 (ip), vehicle: saline
[18] = dose: 100.0 mg/kg/injection, schedule: Q04DX003 (ip), vehicle: saline

Measured: T/C

CC(CO)CCC1OC2CC3C4CC=C5C=CCCC5(C)C4CCC3(C)C2C1C (stereo unspecified)
inactive: dose: 2.25 mg/kg/injection, schedule: Q01DX005 (ip), vehicle: Klucel (hydroxypropylcellulose) (HPC) 107 % of control | dose: 4.5 mg/kg/injection, schedule: Q01DX005 (ip), vehicle: Klucel (hydroxypropylcellulose) (HPC) 104 % of control | dose: 9.0 mg/kg/injection, schedule: Q01DX005 (ip), vehicle: Klucel (hydroxypropylcellulose) (HPC) 97 % of control | dose: 18.0 mg/kg/injection, schedule: Q01DX005 (ip), vehicle: Klucel (hydroxypropylcellulose) (HPC) 96 % of control | dose: 36.0 mg/kg/injection, schedule: Q01DX005 (ip), vehicle: Klucel (hydroxypropylcellulose) (HPC) 124 % of control

Cc1ccc(Cc2nnc(C)c3c(C)[nH]nc23)cc1
inactive: [1] 100 % of control | [2] 95 % of control | [3] 93 % of control

O=[N+]([O-])c1c(Nc2ccccc2)ncnc1Nc1ccccc1
inactive: [4] 105 % of control | [5] 106 % of control | [6] 100 % of control

COc1cc(C2c3c(oc4ccccc4c3=O)Oc3oc4ccccc4c(=O)c32)cc(OC)c1OC
inactive: [7] 86 % of control | [8] 87 % of control

COc1cc(OC)c(OC)cc1/C=C\c1ccc2ccccc2[n+]1C
inactive: dose: 3.12 mg/kg/injection, schedule: Q01DX009 (ip), vehicle: saline with Tween-80 105 % of control | dose: 6.25 mg/kg/injection, schedule: Q01DX009 (ip), vehicle: saline with Tween-80 110 % of control | dose: 12.5 mg/kg/injection, schedule: Q01DX009 (ip), vehicle: saline with Tween-80 111 % of control and 122 % of control | [9] 123 % of control

O=C([O-])CC(=O)[O-].[Cu+2].[OH3+].[OH3+]
inactive: dose: 15.0 mg/kg/injection, schedule: Q01DX005 (ip), vehicle: Klucel (hydroxypropylcellulose) (HPC) 99 % of control

Cc1ccc(/C=N/n2c(-c3ccccc3Cl)nc3ccccc3c2=O)cc1
inactive: dose: 50.0 mg/kg/injection, schedule: Q01DX005 (ip), vehicle: saline with Tween-80 96 % of control | dose: 100.0 mg/kg/injection, schedule: Q01DX005 (ip), vehicle: saline with Tween-80 93 % of control | dose: 200.0 mg/kg/injection, schedule: Q01DX005 (ip), vehicle: saline with Tween-80 91 % of control

CC(=O)Oc1ccc(OCc2ccccc2)c(OCc2ccccc2)c1
inactive: [10] 102 % of control | [11] 99 % of control | [12] 107 % of control

NNC(=O)CCCCl
inactive: dose: 60.0 mg/kg/injection, schedule: Q01DX005 (ip), vehicle: saline 111 % of control | dose: 120.0 mg/kg/injection, schedule: Q01DX005 (ip), vehicle: saline 110 % of control

Nc1cc(Cl)c2[nH]c(-c3ccccc3)nc2n1
inactive: dose: 50.0 mg/kg/injection, schedule: Q01DX001 (ip), vehicle: saline with Tween-80 96 % of control | dose: 100.0 mg/kg/injection, schedule: Q01DX001 (ip), vehicle: saline with Tween-80 94 % of control

Cc1cccc(C)c1NC(=S)NC(=O)c1cccc(Cl)c1
inactive: [13] 94 % of control | [14] 92 % of control | [15] 97 % of control

O=C(CSc1nc(-c2ccccc2)c(-c2ccccc2)o1)N1CCOCC1
inactive: dose: 12.5 mg/kg/injection, schedule: Q01DX009 (ip), vehicle: Klucel (hydroxypropylcellulose) (HPC) 105 % of control | dose: 25.0 mg/kg/injection, schedule: Q01DX009 (ip), vehicle: Klucel (hydroxypropylcellulose) (HPC) 105 % of control | [1] 106 % of control and 110 % of control | [2] 107 % of control and 120 % of control | [3] 110 % of control

CCN(CC)C(Cl)=Nc1ccc(Cl)cc1
inactive: [1] 94 % of control | [2] 100 % of control | [3] 94 % of control

CSC(=O)NCCCN(C)C
inactive: dose: 50.0 mg/kg/injection, schedule: Q01DX005 (ip), vehicle: saline 106 % of control | dose: 100.0 mg/kg/injection, schedule: Q01DX005 (ip), vehicle: saline 107 % of control | dose: 200.0 mg/kg/injection, schedule: Q01DX005 (ip), vehicle: saline 104 % of control

O=C(Nc1ccc(Cl)cc1)Nc1nnc2nc(C(C(=O)c3ccc(Cl)cc3Cl)c3nc4nnc(NC(=O)Nc5ccc(Cl)cc5)n4[nH]c3=O)c(=O)[nH]n12
inactive: [7] 103 % of control | [8] 101 % of control | [16] 101 % of control

CC(=O)SCc1nc2ccccc2[nH]1
inactive: [9] 107 % of control | [10] 105 % of control | [11] 108 % of control

c1cc(-c2cc3cc(C4=NCCN4)ccc3s2)ccc1C1=NCCN1
inactive: dose: 25.0 mg/kg/injection, schedule: Q04DX003 (ip), vehicle: saline 115 % of control | [17] 111 % of control | [18] 98 % of control

Cc1nc2c(I)cccc2c(=O)n1CC(=O)NNC(N)=S
inactive: [4] 101 % of control | [5] 97 % of control | [6] 100 % of control

c1ccc2c(C3N4CCCN3CC4)c[nH]c2c1 (stereo unspecified)
inactive: [9] 103 % of control and 104 % of control and 119 % of control | [10] 98 % of control and 106 % of control and 118 % of control | [11] 103 % of control and 114 % of control and 122 % of control | [12] 105 % of control and 95 % of control

CC(=O)c1ccc(O)c(CN(CCC#N)CCC#N)c1O
inactive: [10] 96 % of control | [11] 89 % of control | [12] 90 % of control

CCOc1ccc(C(C)c2cc3c(cc2OCCO)OCO3)cc1 (stereo unspecified)
inactive: dose: 12.5 mg/kg/injection, schedule: Q01DX005 (ip), vehicle: Klucel (hydroxypropylcellulose) (HPC) 109 % of control | [13] 97 % of control | [14] 104 % of control | [15] 103 % of control | dose: 200.0 mg/kg/injection, schedule: Q01DX005 (ip), vehicle: Klucel (hydroxypropylcellulose) (HPC) 102 % of control

N=C(N)c1ccc(NC(=S)Nc2ccc(C(=N)N)cc2)cc1
inactive: dose: 6.25 mg/kg/injection, schedule: Q01DX009 (ip), vehicle: saline 101 % of control | dose: 12.5 mg/kg/injection, schedule: Q01DX009 (ip), vehicle: saline 99 % of control | dose: 25.0 mg/kg/injection, schedule: Q01DX009 (ip), vehicle: saline 99 % of control

CCOC(=O)C1Cc2c(OC)cc(OC)cc2OC1=O (stereo unspecified)
inactive: [7] 97 % of control | [8] 94 % of control | [16] 92 % of control

CC1OC(OC23C(=O)CC(C)(O)CC2(O)C=CC2=C3C(=O)c3ccc(C4CC(OC5CCC(OC6CC(O)C(O)C(C)O6)C(C)O5)C(O)C(C)O4)c(O)c3C2=O)CCC1O (stereo unspecified)
inactive: dose: 1.0 mg/kg/injection, schedule: Q01DX005 (ip), vehicle: DMSO 104 % of control | dose: 2.0 mg/kg/injection, schedule: Q01DX005 (ip), vehicle: DMSO 105 % of control | dose: 4.0 mg/kg/injection, schedule: Q01DX005 (ip), vehicle: DMSO 99 % of control | dose: 6.25 mg/kg/injection, schedule: Q04DX003 (ip), vehicle: Klucel (hydroxypropylcellulose) (HPC) 100 % of control | dose: 12.5 mg/kg/injection, schedule: Q04DX003 (ip), vehicle: Klucel (hydroxypropylcellulose) (HPC) 91 % of control | dose: 25.0 mg/kg/injection, schedule: Q04DX003 (ip), vehicle: Klucel (hydroxypropylcellulose) (HPC) 100 % of control

COc1ccc(/C=N/Nc2nnc3c4ccccc4c4ccccc4c3n2)cc1
inactive: [17] 89 % of control | [18] 93 % of control | dose: 200.0 mg/kg/injection, schedule: Q04DX003 (ip), vehicle: saline 92 % of control
